The text below walks through data of patent publication US6191147A, “Pyrazole compounds and uses thereof” (PPD Discovery, Inc., priority 1999, dated 2001).

The target of one assay is FPTase (Homo sapiens, UniProt P49354+P49356). Kind of assay: FPTase inhibition ([3H]FPP transfer to H-Ras). Particulars: 40 μM test compound (unless otherwise indicated). The assay is classed as biochemical. The protocol: (§1) For those assays, the reaction mixtures contained the following components in 50 μl:0.25 μM [^3 H]GGPP (sp. act. 8-10 Ci/mmol), 2.5 μM Ras-CVLL, 50 mM Tris-Cl, pH 7.7, 20 mM KCl, 5 mM MgCl2, 5 μM ZnCl2, 1 mM DTT, 0.5 mM Zwittergent 3-14 and the desired amount of the compound to be tested for inhibitory potential. After pre-equilibrating the assay mixture at 30° C. in the absence of the enzyme, the reaction was initiated by addition of the enzyme (75 ng). Following an about 10 minute incubation at about 30° C., the reactions were terminated by addition of about 0.5 ml of about 4% SDS. About 40 mg of bovine brain membranes was added to the samples to enhance recovery during precipitation. […] Reactions were never allowed to proceed to more than 10% completion based on the limiting substrate. Assays for the inhibition studies of FPTase were performed analogous the GGPTase I inhibition studies, except [^3 H]GGPP was replaced with 0.25 μM of [^3 H]FPP (sp. act. 8-10 ci/mmol) and Ras-CVLL was replaced with 1 μM H-Ras.
(§2) Using the method described above, the GGPTase I and FPTase inhibitory activities of some of the compounds of the present invention were measured. The results of these measurements are provided in Tables I-VI, wherein a value of 100 indicates 100% GGPTase I or FPTase inhibition. Unless otherwise indicated, 40 μM concentration of a test compound is used. The term "alpha" refers to the position of R^1 substituent (e.g., 3,4-dichlorophenyl in Table I) on the nitrogen atom in the pyrazole ring that results in the shortest retention time using the HPLC gradient reported above, where as the term "beta" refers to the position of R^1 substituent (e.g., 3,4-dichlorophenyl in Table I) on the nitrogen atom in the pyrazole ring that results in a longer HPLC retention time than the alphα-regioisomer. Mixtures of regioisomers and/or enantiomers are used unless indicated otherwise using the above alpha and beta notations. The term "N/D" means not determined. In Tables I-VI, R^6 group indicated by *1 refers to {[N"-(1'-oxo-1'-pyrid-3-yl)methyl]-N'-carbamoyl}-3-aminopropyl moiety.

Another assay deals with T1, GGPTase I (Rattus norvegicus, UniProt P53610+Q04631).
T1 construct: made in house; host or cells: Sf9 insect cells (recombinant baculovirus, co-infection)
Kind of assay: GGPTase I inhibition ([3H]GGPP transfer to Ras-CVLL). Particulars: 40 μM test compound (unless otherwise indicated). It counts as biochemical. Here is the method:
as §1, §2

For the compound `CS(=O)(=O)CCC(NC(=O)CCc1cc(-c2cccnc2)n[nH]1)C(N)=O` (centres unmarked), at 40 µM the inhibition on FPTase was 78%.
With `NC(=O)C(Cc1ccc(O)cc1)NC(=O)CCc1cc(-c2cccnc2)n[nH]1` (centres unmarked), 40 µM produced 24% inhibition on GGPTase I.
In the case of `NC(=O)C(Cc1c[nH]c2ccccc12)NC(=O)CCc1cc(-c2cccnc2)n[nH]1` (centres unmarked), the inhibition – broadly, the share of the control response that was lost under treatment – at 40 µM at GGPTase I was 24%; against FPTase, 83%.
In turn, `NC(=O)C(CCCNC(=O)NC(=O)c1cccnc1)NC(=O)CCCCc1cc(-c2cccnc2)n[nH]1` (centres unmarked) [IX, R^6 = *1, R^1 = HYDROGEN] returned an inhibition at 40 µM against FPTase of 57%.
On GGPTase I, `NC(=O)C(Cc1ccccc1)NC(=O)CCCCc1cc(-c2cccnc2)n[nH]1` (centres unmarked) [IX, R^6 = BENZYL, R^1 = HYDROGEN] registered an inhibition at 40 µM of 27%.
As for `NC(=O)CNC(=O)CCCCc1cc(-c2cccnc2)n[nH]1` [IX, R^6 = HYDROGEN, R^1 = HYDROGEN], the inhibition at 40 µM against FPTase was determined as 58%.
Regarding `CC(C)C(NC(=O)CCCCc1cc(-c2cccnc2)n[nH]1)C(N)=O` (centres unmarked) [IX, R^6 = ISOPROPYL, R^1 = HYDROGEN], the inhibition at 40 µM turned out to be 33% at GGPTase I and 78% against FPTase.
For the compound `NC(=O)C(CCCNC(=O)NC(=O)c1cccnc1)NC(=O)CCc1cc(-c2cccnc2)n[nH]1` (centres unmarked) [X, R^6 = *1, R^1 = HYDROGEN], testing at 40 µM against FPTase gave an inhibition of 50%.
On to `CC(C)C(NC(=O)CCc1cc(-c2cccnc2)n[nH]1)C(N)=O` (centres unmarked) [X, R^6 = ISOPROPYL, R^1 = HYDROGEN], for which, on FPTase, the inhibition at 40 µM worked out at 72%.
